Literature values in US20050013753A1, “Heat-transfer systems” (priority 2003, published 2005).
Where two headings read alike, the source gives them in different places.

Assays:
rats [1] = conditions: in rats; DuPont MSDS
rabbits = conditions: in rabbits; DuPont MSDS
rats [2] = conditions: in rats, DuPont MSDS
[3] = animal data; DuPont MSDS
[4] = animal data; DuPont MSDS; remark: listed apart in the source
[5] = animal data; DuPont MSDS; remark: listed apart in the source
rats [6] = system: rats
rats [7] = conditions: repeated inhalation exposure
[8] = animal data
bacterial cells = conditions: in vitro
mammalian cells [9] = conditions: in vitro
mammalian cells [10] = system: mammalian cells
mouse = conditions: in vivo mouse
[11] = in water; DuPont MSDS
[12] = DuPont MSDS

OCCCO [1,3-Propanediol, 1,3-propanediol]
Oral LD50 (rats [1]): 15,000 mg/kg
Dermal LD50 (rabbits): > 20,000 mg/kg
Inhalation 4 hour ALC (rats [2]): Inhalation 4 hour ALC: >5.0 mg/L in rats
Eye irritation [3]: not an eye irritant
Skin irritation [4]: slight skin irritant
Skin sensitization [5]: not a skin sensitizer.
Adverse effects to sperm and reproductive organs (rats [6]; oral repeated dose study in rats): no adverse effects to sperm and reproductive organs were observed
Changes in clinical pathology, pathology (including sperm analyses), or in-life measurements (rats [6]; rats, repeated oral gavage): no toxicologically important changes
NOEL (rats [6]; rats, repeated oral gavage, highest dose tested): 1000 mg/kg/day
Changes in clinical pathology, pathology, or in-life measurements (rats [7]): no toxicologically important changes
NOEL (rats [7]): 1800 mg/m3
Toxicity to the fetus [8]: not uniquely toxic to the fetus
Mutagenicity (bacterial cells): not mutagenic
Mutagenicity (mammalian cells [9]): not mutagenic
Chromosome aberrations, repeat study (mammalian cells [10]; 1,3-propanediol manufactured by DuPont): negative for all test conditions
Chromosome aberrations (mammalian cells [10]; under certain conditions): An increase in chromosome aberrations was observed
Micronucleus assay result (mouse): negative
pH [11]: pH: 4.5-7 in water. Color: Colorless.
Chemical Stability [12]: Chemical Stability: Stable at normal temperatures and storage conditions.
